These results are taken from patent US11339130B1 (Blade Therapeutics, Inc., priority 2016, dated 2022).

The target of one assay is T1, Human Calpain 1/NS1 (Homo sapiens, UniProt P07384).
T1 sequence (P07384 1-714): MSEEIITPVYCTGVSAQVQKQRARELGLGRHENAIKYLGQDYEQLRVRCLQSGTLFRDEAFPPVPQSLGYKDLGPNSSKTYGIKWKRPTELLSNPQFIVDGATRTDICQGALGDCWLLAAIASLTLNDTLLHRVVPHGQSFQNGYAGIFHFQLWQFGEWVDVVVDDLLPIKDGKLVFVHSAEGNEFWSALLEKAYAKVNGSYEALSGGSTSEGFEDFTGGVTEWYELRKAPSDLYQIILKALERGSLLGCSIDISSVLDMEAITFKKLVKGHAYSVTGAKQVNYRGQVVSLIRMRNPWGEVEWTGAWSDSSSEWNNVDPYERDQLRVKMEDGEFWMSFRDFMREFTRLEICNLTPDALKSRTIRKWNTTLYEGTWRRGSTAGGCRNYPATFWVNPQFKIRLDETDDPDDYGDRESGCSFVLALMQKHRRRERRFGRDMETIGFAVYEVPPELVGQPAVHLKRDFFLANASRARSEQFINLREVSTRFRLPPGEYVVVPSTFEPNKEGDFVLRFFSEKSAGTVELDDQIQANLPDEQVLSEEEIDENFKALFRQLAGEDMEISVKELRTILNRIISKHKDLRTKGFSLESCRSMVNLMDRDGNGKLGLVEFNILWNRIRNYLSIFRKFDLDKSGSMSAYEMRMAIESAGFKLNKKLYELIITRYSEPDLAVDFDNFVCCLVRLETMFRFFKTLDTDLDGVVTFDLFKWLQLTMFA
T1 sequence (P04632 1-268 partner): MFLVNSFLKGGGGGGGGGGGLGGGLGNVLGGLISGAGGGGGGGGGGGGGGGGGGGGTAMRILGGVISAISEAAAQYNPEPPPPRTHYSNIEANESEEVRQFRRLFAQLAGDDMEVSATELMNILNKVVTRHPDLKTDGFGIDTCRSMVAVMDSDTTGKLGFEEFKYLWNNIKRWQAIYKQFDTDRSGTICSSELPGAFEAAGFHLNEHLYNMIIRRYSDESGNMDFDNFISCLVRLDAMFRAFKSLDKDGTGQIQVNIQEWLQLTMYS
Kind of assay: Calpain inhibition continuous fluorescence (FRET) assay, Human Calpain 1/NS1. Format: biochemical. Particulars: read-out: Human Calpain 1/NS1 IC50. In short, it runs like this:
(§1)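 Calpain activity is measured kinetically with a quenched FRET peptide in 50 mM Tris pH 7.5, 100 mM NaCl, 1 mM DTT, with CaCl2 triggering activation. Rates over 1-5 min are plotted against log inhibitor to obtain IC50 by 4-parameter logistic fitting.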

In a further assay the target is T2, Human Calpain 9/NS1 (Homo sapiens, UniProt O14815).
T2 sequence (O14815 1-690): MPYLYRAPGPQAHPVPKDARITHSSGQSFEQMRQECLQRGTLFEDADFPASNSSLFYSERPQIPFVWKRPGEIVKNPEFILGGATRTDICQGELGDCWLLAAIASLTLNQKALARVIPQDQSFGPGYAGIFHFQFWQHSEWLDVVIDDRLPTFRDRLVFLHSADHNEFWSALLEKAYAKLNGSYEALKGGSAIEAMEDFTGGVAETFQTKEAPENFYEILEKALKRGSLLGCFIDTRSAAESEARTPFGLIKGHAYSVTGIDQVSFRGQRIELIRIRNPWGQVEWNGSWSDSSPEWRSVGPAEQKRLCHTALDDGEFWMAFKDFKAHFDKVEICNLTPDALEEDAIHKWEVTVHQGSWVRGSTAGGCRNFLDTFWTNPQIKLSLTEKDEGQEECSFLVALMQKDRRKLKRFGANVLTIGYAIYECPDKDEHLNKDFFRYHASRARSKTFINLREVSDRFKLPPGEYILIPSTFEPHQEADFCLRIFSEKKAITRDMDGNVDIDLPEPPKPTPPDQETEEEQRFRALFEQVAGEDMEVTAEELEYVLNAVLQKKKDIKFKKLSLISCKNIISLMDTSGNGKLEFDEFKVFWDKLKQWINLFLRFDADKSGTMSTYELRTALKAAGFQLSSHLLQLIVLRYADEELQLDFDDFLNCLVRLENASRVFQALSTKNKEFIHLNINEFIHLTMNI
T2 sequence (P04632 1-268 partner): T1 sequence (P04632 1-268 partner)
Kind of assay: Calpain inhibition continuous fluorescence (FRET) assay, Human Calpain 9/NS1. The class given is biochemical. The settings on record: read-out: Human Calpain 9/NS1 IC50. The procedure, abridged: as §1

Assay [1] concerns Calpain activity in SH-SY5Y cells (SBDP-150). Kind of assay: SH-SY5Y Spectrin western blot assay (SBDP-150 breakdown product, A23187-induced). Format: cell-based. Particulars: Homo sapiens, SH-SY5Y cells, read-out: SH-SY5Y Spectrin IC50.
Assay [2] concerns Calpain activity in SH-SY5Y cells. Nature of the assay: SH-SY5Y + AMC fluorescence assay (Suc-LLVY-AMC substrate). Format: cell-based. Particulars: read-out: SH-SY5Y + AMC IC50.
A further assay addresses T3, Human Calpain 2/NS1 (Homo sapiens, UniProt P17655).
T3 sequence (P17655 1-700): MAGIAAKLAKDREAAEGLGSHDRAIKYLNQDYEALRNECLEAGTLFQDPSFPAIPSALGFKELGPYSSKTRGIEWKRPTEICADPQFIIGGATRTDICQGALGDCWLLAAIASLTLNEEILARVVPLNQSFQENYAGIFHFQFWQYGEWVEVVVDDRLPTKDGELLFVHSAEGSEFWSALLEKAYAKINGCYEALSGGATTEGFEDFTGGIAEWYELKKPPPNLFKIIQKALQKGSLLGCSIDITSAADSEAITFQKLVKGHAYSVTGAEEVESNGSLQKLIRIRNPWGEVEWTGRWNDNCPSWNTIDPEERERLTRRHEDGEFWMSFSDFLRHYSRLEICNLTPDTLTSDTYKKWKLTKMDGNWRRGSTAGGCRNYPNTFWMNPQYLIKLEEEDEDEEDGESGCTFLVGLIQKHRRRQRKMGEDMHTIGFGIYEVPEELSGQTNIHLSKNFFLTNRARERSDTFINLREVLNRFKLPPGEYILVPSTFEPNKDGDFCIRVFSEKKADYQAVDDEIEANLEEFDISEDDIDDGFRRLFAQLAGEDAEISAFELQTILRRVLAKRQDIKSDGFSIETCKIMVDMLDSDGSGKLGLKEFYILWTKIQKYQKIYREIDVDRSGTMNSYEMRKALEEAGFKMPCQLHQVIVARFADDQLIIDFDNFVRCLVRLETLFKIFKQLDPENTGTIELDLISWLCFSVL
T3 sequence (P04632 1-268 partner): T1 sequence (P04632 1-268 partner)
Kind of assay: Calpain inhibition continuous fluorescence (FRET) assay, Human Calpain 2/NS1. The class given is biochemical. The settings on record: read-out: Human Calpain 2/NS1 IC50. The procedure, abridged:
as §1

Where [3] appears, read: A23187-induced SBDP-150, western blot.
Where [4] appears, read: Column D, A23187-induced SBDP-150.

Molecules are shown by their SMILES. Read-outs that look alike come from different tables or passages of the source. Some results are limits rather than exact numbers.

For the molecule `Cn1cc(C(=O)NC(Cc2ccccc2)C(=O)C(N)=O)c(-c2ccc3ccccc3n2)n1` (stereo not drawn) [Compound 587, N-(4-amino-3,4-dioxo-1-phenylbutan-2-yl)-1-methyl-3-(quinolin-2-yl)-1H-pyrazole-4-carboxamide], the IC50 on Human Calpain 1/NS1 was below 3 µM; at Human Calpain 9/NS1 it was 3 to 10 µM; in assay [1] (setting [3]) it was above 25 µM; in assay [2], above 25 µM; on Human Calpain 2/NS1 it was below 3 µM.

In the case of `Cn1cc(C(=O)N[C@@H](Cc2ccccc2)C(=O)C(=O)NCc2ncco2)c(-c2ccccc2)n1` [Compound 334, (S)-1-methyl-N-(4-((oxazol-2-ylmethyl)amino)-3,4-dioxo-1-phenylbutan-2-yl)-3-phenyl-1H-pyrazole-4-carboxamide], the IC50 at Human Calpain 1/NS1 is below 3 µM; at Human Calpain 9/NS1 it was below 3 µM; in assay [1] (setting [3]), above 25 µM; in assay [2], below 10 µM; on Human Calpain 2/NS1 it was below 3 µM.

As to `Cc1cc(C(=O)N[C@@H](Cc2ccccc2)C(=O)C(N)=O)c(-c2ccccc2)s1` [Compound 222, (S)—N-(4-amino-3,4-dioxo-1-phenylbutan-2-yl)-5-methyl-2-phenylthiophene-3-carboxamide], the IC50 at Human Calpain 1/NS1 (Column A) is below 3 µM; at Human Calpain 9/NS1 (Column C), below 3 µM; in assay [1] (setting [4]), 10 to 25 µM; in assay [2] (Column E), above 25 µM; at Human Calpain 2/NS1 (Column B) it was below 3 µM.

`Cc1cc(C(=O)N[C@@H](Cc2ccccc2)C(=O)CF)n(-c2cnccn2)n1` [Compound 477, (S)—N-(4-fluoro-3-oxo-1-phenylbutan-2-yl)-3-methyl-1-(pyrazin-2-yl)-1H-pyrazole-5-carboxamide]: the IC50 was 3 to 10 µM at Human Calpain 1/NS1; 3 to 10 µM at Human Calpain 9/NS1; 10 to 25 µM in assay [1] (setting [3]); above 25 µM in assay [2]; below 3 µM at Human Calpain 2/NS1.

Regarding `Cc1cncc(-c2nn(C(F)F)cc2C(=O)NC(Cc2ccccc2)C(=O)C(N)=O)c1` (stereo not drawn) [Compound 582, N-(4-amino-3,4-dioxo-1-phenylbutan-2-yl)-1-(difluoromethyl)-3-(5-methylpyridin-3-yl)-1H-pyrazole-4-carboxamide], the IC50 at Human Calpain 1/NS1 is below 3 µM; at Human Calpain 9/NS1, below 3 µM; in assay [1] (setting [3]), below 10 µM; in assay [2], 10 to 25 µM; at Human Calpain 2/NS1, below 3 µM.

In the case of `Cc1cc(C(=O)N[C@@H](Cc2ccccc2)C(=O)C(N)=O)n(-c2ncccn2)n1` [Compound 49, (S)—N-(4-amino-3,4-dioxo-1-phenylbutan-2-yl)-3-methyl-1-(pyrimidin-2-yl)-1H-pyrazole-5-carboxamide], the IC50 at Human Calpain 1/NS1 (Column A) was below 3 µM; at Human Calpain 9/NS1 (Column C) it was below 3 µM; in assay [1] (setting [4]) it was below 10 µM; in assay [2] (Column E), below 10 µM; at Human Calpain 2/NS1 (Column B), below 3 µM.

In the case of `NC(=O)C(=O)C(Cc1ccccc1)NC(=O)c1cn(C(F)F)nc1-c1ccc2cnccc2c1` (stereo not drawn) [Compound 577, N-(4-amino-3,4-dioxo-1-phenylbutan-2-yl)-1-(difluoromethyl)-3-(isoquinolin-6-yl)-1H-pyrazole-4-carboxamide], the IC50 is below 3 µM on Human Calpain 1/NS1; below 3 µM at Human Calpain 9/NS1; below 10 µM in assay [1] (setting [3]); below 10 µM in assay [2]; below 3 µM at Human Calpain 2/NS1.

With `Cc1cc(C(=O)N[C@@H](Cc2ccccc2)C(=O)CF)n(-c2ccccc2)n1` [Compound 479, (S)—N-(4-fluoro-3-oxo-1-phenylbutan-2-yl)-3-methyl-1-phenyl-1H-pyrazole-5-carboxamide], the IC50 on Human Calpain 1/NS1 is below 3 µM; on Human Calpain 9/NS1, below 3 µM; in assay [1] (setting [3]), 10 to 25 µM; in assay [2] it was above 25 µM; on Human Calpain 2/NS1, below 3 µM.

`NC(=O)C(=O)C(Cc1ccccc1)NC(=O)c1nsnc1-c1ccccn1` (stereo not drawn) [Compound 373, N-(4-amino-3,4-dioxo-1-phenylbutan-2-yl)-4-(pyridin-2-yl)-1,2,5-thiadiazole-3-carboxamide]: the IC50 at Human Calpain 1/NS1 was below 3 µM; on Human Calpain 9/NS1, below 3 µM; in assay [1] (setting [3]), below 10 µM; in assay [2], below 10 µM; at Human Calpain 2/NS1, below 3 µM.

`NC(=O)C(=O)[C@H](Cc1ccccc1)NC(=O)c1cncn1-c1nc2ccccc2s1` [Compound 50, (S)—N-(4-amino-3,4-dioxo-1-phenylbutan-2-yl)-1-(benzo[d]thiazol-2-yl)-1H-imidazole-5-carboxamide]: the IC50 on Human Calpain 1/NS1 (Column A) was below 3 µM; on Human Calpain 9/NS1 (Column C), below 3 µM; in assay [1] (setting [4]), below 10 µM; in assay [2] (Column E), above 25 µM; on Human Calpain 2/NS1 (Column B), below 3 µM.

In the case of `NC(=O)C(=O)C(Cc1ccc(F)cc1)NC(=O)c1nsnc1-c1ccccc1` (stereo not drawn) [Compound 464, N-(4-amino-1-(4-fluorophenyl)-3,4-dioxobutan-2-yl)-4-phenyl-1,2,5-thiadiazole-3-carboxamide], the IC50 was below 3 µM at Human Calpain 1/NS1; below 3 µM on Human Calpain 9/NS1; below 10 µM in assay [1] (setting [3]); below 10 µM in assay [2]; below 3 µM on Human Calpain 2/NS1.

On to `Cc1cc(C(=O)N[C@H](C=O)Cc2ccccc2)n(-c2cnccn2)n1` [Compound 285, (S)-3-methyl-N-(1-oxo-3-phenylpropan-2-yl)-1-(pyrazin-2-yl)-1H-pyrazole-5-carboxamide], for which the IC50 on Human Calpain 1/NS1 (Column A) is below 3 µM; on Human Calpain 9/NS1 (Column C), below 3 µM; in assay [1] (setting [4]), above 25 µM; in assay [2] (Column E), 10 to 25 µM; at Human Calpain 2/NS1 (Column B), below 3 µM.
